Earlier results, collected in PMC3962266 (Journal of medicinal chemistry, 2013).
Values belong to the molecule of their own block, whether it stands above or below them.

Assays:
[1] = not given; remark: listed apart in the source
[2] = not given; remark: listed apart in the source

Further increase of bleeding risk on addition as combination therapy (added to aspirin): 1%
Compound: COC(=O)[C@H](c1ccccc1Cl)N1CCc2sccc2C1 [clopidogrel]

Baseline major bleeding risk (gastrointestinal or intracranial): 1–4%
Compound: CC(=O)Oc1ccccc1C(=O)O [aspirin]

Solubility [1]: low solubility
Pharmacokinetic (PK) properties [2]: poor pharmacokinetic (PK) properties
Compound: CCCCNc1ncc2c(-c3ccc(S(=O)(=O)N4CCOCC4)cc3)nn(C3CCC(O)CC3)c2n1 (stereo not shown) [UNC1062]
